Reference: patent US9926282B2, “Phthalazinones and isoquinolinones as rock inhibitors” (BRISTOL-MYERS SQUIBB COMPANY, priority 2013, dated 2018)

Key:
ROCK1 = ROCK1 (Homo sapiens (Human), UniProt Q13464); assay: ROCK assay (LABCHIP peptide phosphorylation), ROCK1; type: biochemical; conditions: 5 μM ATP, 1.5 μM peptide substrate; read-out: ROCK1 IC50
ROCK2 = ROCK2 (Homo sapiens (Human), UniProt O75116); assay: ROCK assay (LABCHIP peptide phosphorylation), ROCK2; type: biochemical; conditions: 5 μM ATP, 1.5 μM peptide substrate
ROCK2, sequence (O75116 whole entry, species assumed): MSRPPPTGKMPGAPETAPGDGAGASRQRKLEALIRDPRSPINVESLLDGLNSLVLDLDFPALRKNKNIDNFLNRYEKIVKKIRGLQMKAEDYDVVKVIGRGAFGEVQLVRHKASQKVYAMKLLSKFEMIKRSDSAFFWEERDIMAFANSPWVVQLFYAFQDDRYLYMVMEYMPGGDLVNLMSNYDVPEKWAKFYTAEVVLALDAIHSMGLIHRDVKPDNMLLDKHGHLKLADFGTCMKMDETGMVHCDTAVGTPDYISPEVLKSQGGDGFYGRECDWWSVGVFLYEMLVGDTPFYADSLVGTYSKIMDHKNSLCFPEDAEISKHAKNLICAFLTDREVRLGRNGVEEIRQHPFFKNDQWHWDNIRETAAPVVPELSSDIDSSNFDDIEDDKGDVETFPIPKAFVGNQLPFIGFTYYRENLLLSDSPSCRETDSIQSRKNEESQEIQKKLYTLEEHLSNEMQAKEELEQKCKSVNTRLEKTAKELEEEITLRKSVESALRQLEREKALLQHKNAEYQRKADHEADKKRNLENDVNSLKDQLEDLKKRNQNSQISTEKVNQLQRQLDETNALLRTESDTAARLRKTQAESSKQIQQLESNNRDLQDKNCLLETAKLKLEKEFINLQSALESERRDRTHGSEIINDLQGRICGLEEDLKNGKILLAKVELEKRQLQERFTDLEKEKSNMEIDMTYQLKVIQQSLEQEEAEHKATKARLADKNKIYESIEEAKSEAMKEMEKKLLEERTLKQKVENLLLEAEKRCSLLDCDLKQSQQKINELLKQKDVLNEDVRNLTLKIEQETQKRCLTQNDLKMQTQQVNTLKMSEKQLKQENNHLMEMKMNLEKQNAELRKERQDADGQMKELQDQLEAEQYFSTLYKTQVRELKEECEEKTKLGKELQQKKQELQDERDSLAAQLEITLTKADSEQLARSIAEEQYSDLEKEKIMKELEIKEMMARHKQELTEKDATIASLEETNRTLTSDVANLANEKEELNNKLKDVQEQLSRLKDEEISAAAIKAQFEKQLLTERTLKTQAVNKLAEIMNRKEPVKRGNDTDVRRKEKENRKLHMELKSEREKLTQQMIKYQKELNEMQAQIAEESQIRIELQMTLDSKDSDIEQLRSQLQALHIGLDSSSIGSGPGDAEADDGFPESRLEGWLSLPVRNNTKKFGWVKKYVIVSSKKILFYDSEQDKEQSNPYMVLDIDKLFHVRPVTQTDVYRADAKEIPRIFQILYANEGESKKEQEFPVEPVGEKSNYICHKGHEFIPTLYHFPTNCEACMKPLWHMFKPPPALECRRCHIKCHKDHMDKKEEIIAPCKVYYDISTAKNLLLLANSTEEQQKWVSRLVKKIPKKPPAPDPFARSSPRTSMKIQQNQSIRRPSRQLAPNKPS

ROCK1, sequence (Q13464 whole entry, species assumed): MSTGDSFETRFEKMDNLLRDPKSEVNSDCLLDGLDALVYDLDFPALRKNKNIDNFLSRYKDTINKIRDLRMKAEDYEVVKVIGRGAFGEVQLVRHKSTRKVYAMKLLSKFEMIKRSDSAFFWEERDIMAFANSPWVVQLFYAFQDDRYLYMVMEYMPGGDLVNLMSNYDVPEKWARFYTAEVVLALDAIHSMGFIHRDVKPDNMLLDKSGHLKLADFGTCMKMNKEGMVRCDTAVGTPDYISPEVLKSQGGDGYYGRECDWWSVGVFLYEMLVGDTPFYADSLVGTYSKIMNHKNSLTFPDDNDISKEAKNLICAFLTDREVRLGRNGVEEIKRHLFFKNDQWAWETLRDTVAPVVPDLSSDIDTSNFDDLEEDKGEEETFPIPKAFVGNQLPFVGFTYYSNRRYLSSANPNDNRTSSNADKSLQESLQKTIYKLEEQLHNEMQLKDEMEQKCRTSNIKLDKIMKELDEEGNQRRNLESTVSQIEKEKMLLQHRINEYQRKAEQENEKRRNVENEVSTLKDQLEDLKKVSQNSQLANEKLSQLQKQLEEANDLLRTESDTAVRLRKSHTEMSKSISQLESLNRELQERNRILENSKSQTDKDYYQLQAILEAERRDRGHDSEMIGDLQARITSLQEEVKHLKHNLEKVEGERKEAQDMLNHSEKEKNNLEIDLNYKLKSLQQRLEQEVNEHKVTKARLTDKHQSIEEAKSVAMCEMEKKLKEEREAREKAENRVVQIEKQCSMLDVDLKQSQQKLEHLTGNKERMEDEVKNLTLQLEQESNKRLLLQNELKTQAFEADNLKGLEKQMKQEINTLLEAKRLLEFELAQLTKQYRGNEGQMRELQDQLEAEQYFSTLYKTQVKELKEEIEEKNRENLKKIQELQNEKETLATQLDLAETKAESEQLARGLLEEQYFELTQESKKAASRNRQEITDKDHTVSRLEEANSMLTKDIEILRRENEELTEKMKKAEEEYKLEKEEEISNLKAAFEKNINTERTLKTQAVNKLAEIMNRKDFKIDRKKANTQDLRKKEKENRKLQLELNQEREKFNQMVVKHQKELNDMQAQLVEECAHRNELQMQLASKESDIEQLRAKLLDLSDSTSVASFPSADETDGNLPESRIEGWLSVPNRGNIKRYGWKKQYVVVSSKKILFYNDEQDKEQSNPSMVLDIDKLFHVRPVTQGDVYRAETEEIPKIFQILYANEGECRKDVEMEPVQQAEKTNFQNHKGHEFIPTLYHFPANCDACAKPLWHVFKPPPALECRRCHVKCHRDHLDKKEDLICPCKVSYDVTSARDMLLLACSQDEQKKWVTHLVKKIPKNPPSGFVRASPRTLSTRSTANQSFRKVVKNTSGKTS

Q: With `O=C(Nc1ccc(-c2n[nH]c(=O)c3ccccc23)cc1)c1nn(CCCO)c2ccccc12` [Example 164, 1-(3-hydroxypropyl)-N-[4-(4-oxo-3,4-dihydrophthalazin-1-yl)phenyl]-1H-indazole-3-carboxamide] as the compound, how does the IC50 (ROCK1) read?
A: 0.1 to 100 nM

Q: And the IC50 (ROCK2)?
A: 0.1 to 100 nM

Q: Which results are given for `Cc1cc(NC(=O)c2cnn3ccccc23)ccc1-c1n[nH]c(=O)c2ccccc12` [Example 310, N-[3-methyl-4-(4-oxo-3,4-dihydrophthalazin-1-yl)phenyl]pyrazolo [1,5-a]pyridine-3-carboxamide]?
A: IC50 (ROCK1): 101 to 1000 nM; IC50 (ROCK2): 0.1 to 100 nM

Q: For `Cn1nc(C(=O)Nc2ccc(-c3n[nH]c(=O)c4ccccc34)cc2)cc1C(C)(C)C` [Example 206, 5-tert-butyl-1-methyl-N-[4-(4-oxo-3,4-dihydrophthalazin-1-yl)phenyl]-1H-pyrazole-3-carboxamide], which IC50 (ROCK1) is on record?
A: 0.1 to 100 nM

Q: And the IC50 (ROCK2)?
A: 0.1 to 100 nM

Q: How did the IC50 (ROCK1) turn out when `O=C(Nc1ccc(-c2n[nH]c(=O)c3ccccc23)c(Cl)c1)c1nn(CC2CCOC2)c2ccccc12` (stereo not shown) [Example 319, N-[3-chloro-4-(4-oxo-3,4-dihydrophthalazin-1-yl)phenyl]-1-(oxolan-3-ylmethyl)-1H-indazole-3-carboxamide] was run?
A: 0.1 to 100 nM

Q: And the IC50 (ROCK2)?
A: 0.1 to 100 nM

Q: With `Cn1ncc(C(=O)Nc2ccc(-c3n[nH]c(=O)c4ccccc34)cc2)c1-c1ccccc1` [Example 192, 1-methyl-N-[4-(4-oxo-3,4-dihydrophthalazin-1-yl)phenyl]-5-phenyl-1H-pyrazole-4-carboxamide] as the compound, how does the IC50 (ROCK1) read?
A: 101 to 1000 nM

Q: What about the IC50 (ROCK2) of the same compound?
A: 0.1 to 100 nM

Q: What does the source list for `COc1ccc2c(-c3ccc(NC(=O)c4cn5ccccc5n4)cc3)n[nH]c(=O)c2c1` [Example 370, N-(4-(6-Methoxy-4-oxo-3,4-dihydrophthalazin-1-yl)phenyl)imidazo[1,2-a]pyridine-2-carboxamide]?
A: IC50 (ROCK1): 1000 to 50000 nM; IC50 (ROCK2): 0.1 to 100 nM

Q: What does the source list for “N-[4-(4-oxo-3,4- dihydrophthalazin-1- yl)phenyl]pyrazolo[1,5- a]pyrimidine-2- carboxamide [Example 102]”?
A: IC50 (ROCK1): 0.1 to 100 nM; IC50 (ROCK2): 0.1 to 100 nM

Q: Which results are given for `COC(=O)N1CCC(Cn2nc(C(=O)Nc3ccc(-c4n[nH]c(=O)c5ccccc45)cc3)c3ccccc32)CC1` [Example 344, Methyl 4-((3-((4-(4-oxo-3,4-dihydrophthalazin-1-yl)phenyl)carbamoyl)-1H-indazol-1-yl)methyl)piperidine-1-carboxylate]?
A: IC50 (ROCK1): 0.1 to 100 nM; IC50 (ROCK2): 0.1 to 100 nM

Q: What does the source list for `CN(C)C(=O)c1ccc2c(c1)N(C(=O)Cc1ccc(-c3n[nH]c(=O)c4ccccc34)cc1)CC2` [Example 291, N,N-dimethyl-1-{2-[4-(4-oxo-3,4-dihydrophthalazin-1-yl)phenyl]acetyl}-2,3-dihydro-1H-indole-6-carboxamide]?
A: IC50 (ROCK1): 101 to 1000 nM; IC50 (ROCK2): 0.1 to 100 nM

Q: `COc1cc(-c2n[nH]c(=O)c3ccccc23)ccc1NC(=O)c1nn(CC(C)(C)O)c2ccccc12` [Example 357, 1-(2-Hydroxy-2-methylpropyl)-N-(2-methoxy-4-(4-oxo-3,4-dihydrophthalazin-1-yl)phenyl)-1H-indazole-3-carboxamide] was tested. Which IC50 (ROCK1) did it give?
A: 1000 to 50000 nM

Q: What about the IC50 (ROCK2) of the same compound?
A: 101 to 1000 nM

Q: With `CC(C)(O)Cn1nc(C(=O)Nc2ccc(-c3n[nH]c(=O)c4ccccc34)c(Cl)c2)c2ccccc21` [Example 315, N-[3-chloro-4-(4-oxo-3,4-dihydrophthalazin-1-yl)phenyl]-1-(2-hydroxy-2-methylpropyl)-1H-indazole-3-carboxamide] as the compound, how does the IC50 (ROCK1) read?
A: 0.1 to 100 nM

Q: And the IC50 (ROCK2)?
A: 0.1 to 100 nM

Q: How did the IC50 (ROCK1) turn out when `Cc1cc(NC(=O)c2nn(CC3CCN(CCCCO)CC3)c3ccccc23)ccc1-c1n[nH]c(=O)c2ccccc12` [Example 321, 1-((1-(4-Hydroxybutyl)piperidin-4-yl)methyl)-N-(3-methyl-4-(4-oxo-3,4-dihydrophthalazin-1-yl)phenyl)-1H-indazole-3-carboxamide] was run?
A: 0.1 to 100 nM

Q: And the IC50 (ROCK2)?
A: 101 to 1000 nM

Q: How did the IC50 (ROCK1) turn out when `COCCCn1nc(C(=O)Nc2ccc(-c3n[nH]c(=O)c4ccccc34)cc2)c2ccccc21` [Example 163, 1-(3-methoxypropyl)-N-[4-(4-oxo-3,4-dihydrophthalazin-1-yl)phenyl]-1H-indazole-3-carboxamide] was run?
A: 0.1 to 100 nM

Q: And the IC50 (ROCK2)?
A: 0.1 to 100 nM

Q: How did the IC50 (ROCK1) turn out when `O=C(Cc1ccc(-c2n[nH]c(=O)c3ccccc23)cc1)N1CCc2ccc(OCc3cccnc3)cc21` [Example 270, 4-(4-{2-oxo-2-[6-(pyridin-3-ylmethoxy)-2,3-dihydro-1H-indol-1-yl]ethyl}phenyl)-1,2-dihydrophthalazin-1-one] was run?
A: 0.1 to 100 nM

Q: And the IC50 (ROCK2)?
A: 0.1 to 100 nM

Q: What does the source list for `CCOc1cc(NC(=O)c2nn(CC3CCOC3)c3ccccc23)ccc1-c1n[nH]c(=O)c2ccccc12` (stereo not shown) [Example 347, N-(3-Ethoxy-4-(4-oxo-3,4-dihydrophthalazin-1-yl)phenyl)-1-((tetrahydrofuran-3-yl)methyl)-1H-indazole-3-carboxamide]?
A: IC50 (ROCK1): 1000 to 50000 nM; IC50 (ROCK2): 101 to 1000 nM

Q: `O=C(Nc1ccc(-c2n[nH]c(=O)c3ccccc23)cc1)c1nn(CC2CCOC2)c2ccc(F)cc12` (stereo not shown) [Example 173, 5-fluoro-N-[4-(4-oxo-3,4-dihydrophthalazin-1-yl)phenyl]-1-(oxolan-3-ylmethyl)-1H-indazole-3-carboxamide] was tested. Which IC50 (ROCK1) did it give?
A: 0.1 to 100 nM

Q: And the IC50 (ROCK2)?
A: 0.1 to 100 nM

Q: Which results are given for `O=C(Nc1ccc(-c2n[nH]c(=O)c3ccccc23)cc1)c1nn(CC2COC2)c2cc(F)ccc12` [Example 159, 6-fluoro-1-(oxetan-3-ylmethyl)-N-[4-(4-oxo-3,4-dihydrophthalazin-1-yl)phenyl]-1H-indazole-3-carboxamide]?
A: IC50 (ROCK1): 0.1 to 100 nM; IC50 (ROCK2): 0.1 to 100 nM

Q: What does the source list for `Cc1cc(NC(=O)c2cnn3cc(OCCN4CCCC4)ccc23)ccc1-c1n[nH]c(=O)c2ccccc12` [Example 325, N-[3-methyl-4-(4-oxo-3,4-dihydrophthalazin-1-yl)phenyl]-6-[2-(pyrrolidin-1-yl)ethoxy] pyrazolo[1,5-a]pyridine-3-carboxamide]?
A: IC50 (ROCK1): 101 to 1000 nM; IC50 (ROCK2): 0.1 to 100 nM

Q: Which results are given for `O=C(Nc1ccc(-c2n[nH]c(=O)c3ccccc23)cc1)c1nn(Cc2ccccc2)c2ccccc12` [Example 99, 1-benzyl-N-[4-(4-oxo-3,4-dihydrophthalazin-1-yl)phenyl]-1H-indazole-3-carboxamide]?
A: IC50 (ROCK1): 0.1 to 100 nM; IC50 (ROCK2): 0.1 to 100 nM

Q: For `O=C(Nc1ccc(-c2n[nH]c(=O)c3ccccc23)cc1)c1nn(CC2CCN(CCCCO)CC2)c2ccccc12` [Example 322, 1-((1-(4-Hydroxybutyl)piperidin-4-yl)methyl)-N-(4-(4-oxo-3,4-dihydrophthalazin-1-yl)phenyl)-1H-indazole-3-carboxamide], which IC50 (ROCK1) is on record?
A: 0.1 to 100 nM

Q: What about the IC50 (ROCK2) of the same compound?
A: 101 to 1000 nM

Q: How did the IC50 (ROCK1) turn out when `CC(C)n1nc(C(=O)Nc2ccc(-c3n[nH]c(=O)c4ccccc34)c(CO)c2)c2ccccc21` [Example 364, N-(3-(Hydroxymethyl)-4-(4-oxo-3,4-dihydrophthalazin-1-yl)phenyl)-1-isopropyl-1H-indazole-3-carboxamide] was run?
A: 101 to 1000 nM

Q: And the IC50 (ROCK2)?
A: 0.1 to 100 nM

Q: `O=C(Cc1ccc(-c2n[nH]c(=O)c3ccccc23)cc1)N1CCN(c2ncccn2)CC1` [Example 15, 4-(4-{2-oxo-2-[4-(pyrimidin-2-yl)piperazin-1-yl]ethyl}phenyl)-1,2-dihydrophthalazin-1-one] was tested. Which IC50 (ROCK1) did it give?
A: 1000 to 50000 nM

Q: And the IC50 (ROCK2)?
A: 1000 to 50000 nM

Q: For `CN1CC(Cn2nc(C(=O)Nc3ccc(-c4n[nH]c(=O)c5ccccc45)cc3)c3ccccc32)C1` [Example 340, 1-((1-Methylazetidin-3-yl)methyl)-N-(4-(4-oxo-3,4-dihydrophthalazin-1-yl)phenyl)-1H-indazole-3-carboxamide], which IC50 (ROCK1) is on record?
A: 0.1 to 100 nM

Q: And the IC50 (ROCK2)?
A: 0.1 to 100 nM

Q: How did the IC50 (ROCK1) turn out when `O=c1[nH]nc(-c2ccc(Nc3nc4ccccc4o3)cc2)c2ccccc12` [Example 75, 4-(4-(Benzo[d]oxazol-2-ylamino)phenyl)phthalazin-1(2H)-one] was run?
A: 0.1 to 100 nM

Q: What about the IC50 (ROCK2) of the same compound?
A: 0.1 to 100 nM

Q: Which results are given for `Cc1nn(-c2cccc(Cl)c2Cl)nc1C(=O)Nc1ccc(-c2n[nH]c(=O)c3ccccc23)cc1` [Example 238, 2-(2,3-dichlorophenyl)-5-methyl-N-[4-(4-oxo-3,4-dihydrophthalazin-1-yl)phenyl]-2H-1,2,3-triazole-4-carboxamide]?
A: IC50 (ROCK1): 101 to 1000 nM; IC50 (ROCK2): 0.1 to 100 nM

Q: With `O=C(Nc1ccc(-c2n[nH]c(=O)c3ccccc23)cc1)c1c[nH]c(-c2ccccc2)n1` [Example 230, N-[4-(4-oxo-3,4-dihydrophthalazin-1-yl)phenyl]-2-phenyl-1H-imidazole-4-carboxamide] as the compound, how does the IC50 (ROCK1) read?
A: 0.1 to 100 nM

Q: And the IC50 (ROCK2)?
A: 0.1 to 100 nM

Q: What does the source list for `O=C(Oc1ccc(-c2n[nH]c(=O)c3ccccc23)cc1)N1CCC(c2ccccc2)C1` (stereo not shown) [Example 69, 4-(4-Oxo-3,4-dihydrophthalazin-1-yl)phenyl 3-phenylpyrrolidine-1-carboxylate]?
A: IC50 (ROCK1): 1000 to 50000 nM; IC50 (ROCK2): 101 to 1000 nM

Q: Which IC50 (ROCK1) does the source give for `O=C(Nc1ccc(-c2n[nH]c(=O)c3ccccc23)cc1)c1n[nH]c2ncccc12` [Example 110, N-[4-(4-oxo-3,4-dihydrophthalazin-1-yl)phenyl]-1H-pyrazolo[3,4-b]pyridine-3-carboxamide] here?
A: 0.1 to 100 nM

Q: And the IC50 (ROCK2)?
A: 0.1 to 100 nM

Q: `COc1ccc2[nH]nc(C(=O)Nc3ccc(-c4n[nH]c(=O)c5ccccc45)cc3)c2c1` [Example 123, 5-methoxy-N-[4-(4-oxo-3,4-dihydrophthalazin-1-yl)phenyl]-1H-indazole-3-carboxamide] was tested. Which IC50 (ROCK1) did it give?
A: 101 to 1000 nM

Q: And the IC50 (ROCK2)?
A: 0.1 to 100 nM

Q: What does the source list for `CC(C)(C)OC(=O)N1CC(Cn2nc(C(=O)Nc3ccc(-c4n[nH]c(=O)c5ccccc45)c(Cl)c3)c3ccccc32)C1` [Example 316, tert-butyl 3-[(3-{[3-chloro-4-(4-oxo-3,4-dihydrophthalazin-1-yl)phenyl]carbamoyl}-1H-indazol-1-yl)methyl] azetidine-1-carboxylate]?
A: IC50 (ROCK1): 101 to 1000 nM; IC50 (ROCK2): 0.1 to 100 nM

Q: `COc1ccc2c(=O)[nH]cc(-c3ccc(NC(=O)N4CCc5ccccc54)cc3C)c2c1` [Example 323, N-(4-(6-Methoxy-1-oxo-1,2-dihydroisoquinolin-4-yl)-3-methylphenyl)indoline-1-carboxamide] was tested. Which IC50 (ROCK1) did it give?
A: 0.1 to 100 nM

Q: What about the IC50 (ROCK2) of the same compound?
A: 0.1 to 100 nM

Q: For `O=C(Nc1ccc(-c2n[nH]c(=O)c3ccccc23)cc1)C1CC(=O)N(c2ccccc2)C1` (stereo not shown) [Example 217, 5-oxo-N-[4-(4-oxo-3,4-dihydrophthalazin-1-yl)phenyl]-1-phenylpyrrolidine-3-carboxamide], which IC50 (ROCK1) is on record?
A: 1000 to 50000 nM

Q: And the IC50 (ROCK2)?
A: 101 to 1000 nM
